# Measured values: ChEMBL document CHEMBL1143426, “In vivo efficacy of ceftaroline (PPI-0903), a new broad-spectrum cephalosporin, compared with linezolid and vancomycin against methicillin-resistant and vancomycin-intermediate Staphylococcus aureus in a rabbit endocarditis model” (Antimicrob Agents Chemother, 2007)
# Calls of active or inactive are those of the source. The calls are words filed in the database; no cut-off is given here.
# How the values were obtained:
# Staphylococcus aureus [1] = test: Bactericidal activity against vancomycin-intermediate Staphylococcus aureus by microdilution technique; assay type: functional
# Staphylococcus aureus [2] = test: Bactericidal activity against methicillin-resistant Staphylococcus aureus SA2 by microdilution technique; assay type: functional
# Staphylococcus aureus [3] = test: Bactericidal activity against methicillin-resistant Staphylococcus aureus SA2 in rabbit endocarditis model assessed per gram of aortic vegetation at 58 mg/kg infused every 12 hrs for 4 days measured after 48 hrs; assay type: functional, Aorta
# Oryctolagus cuniculus = test: Plasma concentration in rabbit at 58 mg/kg infused every 12 hrs for 4 days; assay type: ADME, organism-based; parameters: dose 58 mg/kg; settings: in vivo, iv
# Staphylococcus aureus [4] = test: Bactericidal activity against vancomycin-intermediate Staphylococcus aureus in rabbit endocarditis model assessed per gram of aortic vegetation at 58 mg/kg infused every 12 hrs for 4 days measured after 48 hrs; assay type: functional, Aorta
# Staphylococcus aureus [5] = test: Bactericidal activity against vancomycin-intermediate Staphylococcus aureus in rabbit endocarditis model assessed as growth inhibition at 58 mg/kg infused every 12 hrs for 4 days measured after 48 hrs; assay type: functional; settings: read-out: GI
# Staphylococcus aureus [6] = test: Bactericidal activity against methicillin-resistant Staphylococcus aureus SA2 in rabbit endocarditis model assessed as growth inhibition at 58 mg/kg infused every 12 hrs for 4 days measured after 48 hrs; assay type: functional; settings: read-out: GI
# [7] = Half life in rabbit plasma at 58 mg/kg infused every 12 hrs for 4 days; assay type: ADME, organism-based, Oryctolagus cuniculus; parameters: dose 58 mg/kg; settings: iv
# [8] = AUC in rabbit plasma at 58 mg/kg infused every 12 hrs for 4 days; assay type: ADME, organism-based, Oryctolagus cuniculus; parameters: dose 58 mg/kg; settings: iv
# [9] = Cmax in rabbit plasma at 58 mg/kg infused every 12 hrs for 4 days; assay type: ADME, organism-based, Oryctolagus cuniculus; parameters: dose 58 mg/kg; settings: iv
# Staphylococcus aureus [10] = test: %T>MIC in methicillin-resistant Staphylococcus aureus SA2 in rabbit endocarditis model; settings: in vivo
# Morganella morganii = test: Antibacterial activity against Morganella morganii; assay type: functional, organism-based
# [11] = Protein binding in human plasma; assay type: ADME, cell-free; settings: read-out: PPB
# [12] = Protein binding in rabbit plasma; assay type: ADME, cell-free, Oryctolagus cuniculus; settings: read-out: PPB
# Staphylococcus aureus [13] = test: %T>MIC in methicillin-resistant Staphylococcus aureus in mouse thigh/lung infection model; assay type: ADME, organism-based; settings: in vivo
# Staphylococcus aureus [14] = test: Bactericidal activity against vancomycin-intermediate Staphylococcus aureus in rabbit endocarditis model at 4 times MIC after 48 hrs; assay type: functional, organism-based
# Escherichia coli = test: Antibacterial activity against Escherichia coli; assay type: functional, organism-based
# Staphylococcus aureus [15] = test: %T>MIC in vancomycin-intermediate Staphylococcus aureus in rabbit endocarditis model; settings: in vivo
# Staphylococcus aureus [16] = test: Bactericidal activity against methicillin-resistant Staphylococcus aureus SA2 in rabbit endocarditis model at 4 times MIC after 48 hrs; assay type: functional, organism-based
# Haemophilus influenzae = test: Antibacterial activity against Haemophilus influenzae; assay type: functional, organism-based
# Citrobacter freundii = test: Antibacterial activity against Citrobacter freundii; assay type: functional, organism-based
# Moraxella catarrhalis = test: Antibacterial activity against Moraxella catarrhalis; assay type: functional, organism-based
# Neisseria meningitidis = test: Antibacterial activity against Neisseria meningitidis; assay type: functional, organism-based
# Pseudomonas aeruginosa = test: Antibacterial activity against Pseudomonas aeruginosa; assay type: functional
# Klebsiella pneumoniae = test: Antibacterial activity against Klebsiella pneumoniae; assay type: functional, organism-based
Structure (SMILES),MIC (Staphylococcus aureus [1]) [µg/mL],MIC (Staphylococcus aureus [2]) [µg/mL],log10cfu (Staphylococcus aureus [3]),log10cfu (Staphylococcus aureus [4]),inhibition in vivo at 58 mg/kg (Staphylococcus aureus [5]) [%],MBC (Staphylococcus aureus [1]) [µg/mL],MBC (Staphylococcus aureus [2]) [µg/mL],inhibition in vivo at 58 mg/kg (Staphylococcus aureus [6]) [%],also measured
COc1cccc(OC)c1C(=O)N[C@@H]1C(=O)N2[C@@H]1SC(C)(C)[C@@H]2C(=O)O [METHICILLIN],> 1020,128,–,–,–,–,–,–,–
CN[C@H](CC(C)C)C(=O)N[C@H]1C(=O)N[C@@H](CC(N)=O)C(=O)N[C@H]2C(=O)N[C@H]3C(=O)N[C@H](C(=O)N[C@H](C(=O)O)c4cc(O)cc(O)c4-c4cc3ccc4O)[C@H](O)c3ccc(c(Cl)c3)Oc3cc2cc(c3O[C@@H]2O[C@H](CO)[C@@H](O)[C@H](O)[C@H]2O[C@H]2C[C@](C)(N)[C@H](O)[C@H](C)O2)Oc2ccc(cc2Cl)[C@H]1O [VANCOMYCIN],–,–,2.7,6.7,0,8,2,67,Cp (Oryctolagus cuniculus): 23100 ng/mL
CC(=O)NC[C@H]1CN(c2ccc(N3CCOCC3)c(F)c2)C(=O)O1 [LINEZOLID],1,–,7.1,6.9,0,16,> 64,0,half-life [7]: 3.3 h; AUC [8]: 137 µg·h/mL; Cmax [9]: 19600 ng/mL
CCO/N=C(\C(=O)N[C@@H]1C(=O)N2C(C(=O)[O-])=C(Sc3nc(-c4cc[n+](C)cc4)cs3)CS[C@H]12)c1nsc(NP(=O)(O)O)n1 [CEFTAROLINE FOSAMIL],2,1,2.5,3,60,2,1,90,T>MIC (Staphylococcus aureus [10]): 75%; Activity (Morganella morganii): Active; fraction unbound [11]: > 0.8; fraction unbound [12]: > 0.8; T>MIC (Staphylococcus aureus [13]): 33%; Activity (Staphylococcus aureus [14]): Active; Activity (Escherichia coli): Active; T>MIC (Staphylococcus aureus [15]): 62%; Activity (Staphylococcus aureus [16]): Active; Activity (Haemophilus influenzae): Active; Activity (Citrobacter freundii): Active; Activity (Moraxella catarrhalis): Active; Activity (Neisseria meningitidis): Active; MIC90 (Pseudomonas aeruginosa): > 32 µg/mL; Activity (Klebsiella pneumoniae): Active
